Measurements: US20240374587A1, “MEDICINE FOR PREVENTION AND TREATMENT OF DISEASES LINKED TO ANTI-OBESITY ACTIVITY” (Shionogi & Co., Ltd., priority 2021, published 2024)

Columns and labels:
[1] = molecular target: human MGAT2 (Homo sapiens (Human), UniProt Q3SYC2); test: Measurement of human MGAT2 inhibitory activity; format: biochemical; details: concentration exhibiting 50% enzyme inhibition
Procedure: Solutions of the compounds of the present invention in DMSO were each aliquoted into 0.2·μL portions in a 384-well polystyrene microplate produced by Corning Incorporated, and 5 μL of an enzyme solution prepared with an assay buffer (100 mmol/L phosphate buffer (pH 7.4) containing 2 mmol/L DTT) and 5 μL of a substrate solution (100 mmol/L phosphate buffer (pH 7.4), 30 μmol/L 2-Oleoylglycerol, 10 μmol/L Oleoyl-CoA) were added thereto, and the resultant was stirred and centrifuged, and incubated in a moist chamber at room temperature for 1 hour. After enzymatic reaction, 50 μL of a quenching solution (containing 0.2 μmol/L Diolein-d5, 0.4% formic acid, and 50% isopropanol) containing Internal Standard (IS) was added to terminate the reaction, and the resultant was sealed in a plate produced by Shimadzu GLC Ltd., and then stirred and centrifuged, and measurement was performed by using an electrospray ionization method with a RapidFire360 and Agilent 6550 Q-TOF mass spectrometer. Diolein as a reaction product (P) of 2-Oleoylglycerol as the substrate and an ammonium adduct ion of the IS were detected, and the peak intensity ratio, P/IS, was calculated from the peak heights to evaluate the inhibitory activity. Inhibitory activities with/without addition of enzyme were defined as Control (+)/Control (−), respectively, and the respective % inhibitions were defined as 0% inhibition and 100% inhibition. The inhibitory activity was calculated from the formula below with TIBCO Spotfire (produced by TIBCO Software Inc.) with the peak intensity ratio, P/IS, at the time of addition of the compound of the present invention being as Sample: […]

[2] = system: C57BL/6j mice (DIO mice); test: Anti-obesity effect test in DIO mice (body weight, food consumption); format: in vivo; design: concentration or dose not given beside the values; details: for Rate of decrease in body weight relative to control group: at final administration (Day 0 to Day 35, once a day)
Procedure: The anti-obesity effect of the compound and/or agent according to the present invention was examined by using C57BL/6j mice (DIO mice) provided with a high-fat diet (TestDiet; 58Y1).
Five-week-old male C57BL/6j mice (CLEA Japan. Inc.) were purchased, and grown with feeding of a high-fat diet under 12-hour light-dark cycles for 4 weeks to produce DIO mice. A medium (0.5% HPMC and physiological saline) was administered once a day from 3 weeks before administration of the compound. Randomization was performed for grouping (n=9 to 10) on the basis of body weight and change in food consumption during the period of administration for conditioning. From Day 0 to Day 35, gavage of vehicle (0.5% HPMC and physiological saline) (hereinafter, Control group), gavage of Compound (A) according to the present invention (hereinafter, (A)-administration group), subcutaneous administration of GLP-1 formulation (liraglutide or semaglutide) as Compound (B) according to the present invention (hereinafter, (B)-administration group), or both (hereinafter, the combined administration group) were performed once a day. The GLP-1 formulation was formulated in an increasing dose, and liraglutide and semaglutide were administered at 4 to 20 μg/kg and:3 to 15 μg/kg, respectively, once a day. During the administration period, daily body weight measurement and food consumption measurement once a week were performed.

[3] = 1st week of administration, semaglutide study
[4] = 2nd week of administration, semaglutide study
[5] = 3rd week of administration, semaglutide study
[6] = 4th week of administration, semaglutide study
[7] = 5th week of administration, semaglutide study

Sequence of human MGAT2 (Q3SYC2 whole entry): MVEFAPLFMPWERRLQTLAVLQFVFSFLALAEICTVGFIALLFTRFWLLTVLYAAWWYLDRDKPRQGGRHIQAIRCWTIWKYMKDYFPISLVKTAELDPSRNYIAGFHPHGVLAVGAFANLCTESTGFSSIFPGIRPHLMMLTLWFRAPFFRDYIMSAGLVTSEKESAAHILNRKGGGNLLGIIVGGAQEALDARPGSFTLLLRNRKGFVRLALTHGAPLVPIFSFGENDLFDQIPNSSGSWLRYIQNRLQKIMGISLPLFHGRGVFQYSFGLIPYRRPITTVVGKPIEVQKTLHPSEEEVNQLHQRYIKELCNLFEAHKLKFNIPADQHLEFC

Compound | IC50 [1] | Rate of decrease in food consumption relative to control group ([2]; 1st week of administration, liraglutide study) | Rate of decrease in food consumption relative to control group [2, 3] | Rate of decrease in food consumption relative to control group ([2]; 2nd week of administration, liraglutide study) | Rate of decrease in food consumption relative to control group [2, 4] | Rate of decrease in food consumption relative to control group ([2]; 3rd week of administration, liraglutide study) | Rate of decrease in food consumption relative to control group [2, 5] | Rate of decrease in food consumption relative to control group ([2]; 4th week of administration, liraglutide study) | Rate of decrease in food consumption relative to control group [2, 6] | Rate of decrease in food consumption relative to control group ([2]; 5th week of administration, liraglutide study) | Rate of decrease in food consumption relative to control group [2, 7] | Rate of decrease in body weight relative to control group ([2]; liraglutide study (FIG. 1)) | Rate of decrease in body weight relative to control group ([2]; semaglutide study (FIG. 2))
CS(=O)(=O)CC(=O)Nc1c2c(nn1CCCOC(F)(F)F)C[C@@]1(CCOc3cc(OCC(F)(F)F)ccc31)NC2=O [II-121] | 2.91 nM | 18.9% | 15.7% | 12.7% | 10.5% | 9.9% | 7.3% | 8.5% | 3.9% | 7.5% | 1.6% | 10.0% | 5.5%
semaglutide [reference compound] |  |  | 8.5% |  | 33.1% |  | 18.2% |  | 10.9% |  | 6.0% |  | 18.0%
